Experimental data from patent US9006232B2, “Pyrimidone derivatives” (Mitsubishi Tanabe Pharma Corporation, priority 2009, dated 2015).

These compounds were tested against bovine cerebral TPK1 (Bos taurus, UniProt A0A059UE90) (assay: Inhibitory activity against P-GS1 phosphorylation by bovine cerebral TPK1). Details: not given.
Type: biochemical
Method: Inhibitory Activity of the Medicament of the Present Invention Against P-GS1 Phosphorylation by Bovine Cerebral TPK1 […] The phosphorylation was started by adding ATP, and the reaction was conducted at 25° C. for 2 hours, and then stopped by adding 21% perchloric acid on ice cooling. The reaction mixture was centrifuged at 12,000 rpm for 5 minutes and adsorbed on P81 paper (Whatmann), and then the paper was washed four times with 75 mM phosphoric acid, three times with water and once with acetone. The paper was dried, and the residual radioactivity was measured using a liquid scintillation counter.

Chain of bovine cerebral TPK1 (A0A059UE90 1-419): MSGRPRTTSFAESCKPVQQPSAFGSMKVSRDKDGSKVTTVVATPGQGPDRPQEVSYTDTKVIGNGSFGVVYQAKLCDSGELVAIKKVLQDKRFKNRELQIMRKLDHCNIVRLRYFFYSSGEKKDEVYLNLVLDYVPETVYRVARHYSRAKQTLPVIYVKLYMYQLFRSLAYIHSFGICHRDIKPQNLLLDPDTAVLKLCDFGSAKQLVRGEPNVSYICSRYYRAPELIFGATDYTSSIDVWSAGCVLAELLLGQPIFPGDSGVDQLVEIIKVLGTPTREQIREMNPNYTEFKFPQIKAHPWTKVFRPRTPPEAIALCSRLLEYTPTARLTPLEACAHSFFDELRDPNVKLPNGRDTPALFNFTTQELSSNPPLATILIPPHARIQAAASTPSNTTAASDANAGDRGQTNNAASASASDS

Row | SMILES | IC50 [nM]
1 | Cn1c(O[C@H]2C[C@H]3CC[C@@H](C2)N3)nc(-c2ccncn2)cc1=O [Compound No. 2.101, endo-2-(8-Aza-bicyclo[3.2.1]oct-3-yloxy)-1-methyl-1H-[4,4′] bipyrimidinyl-6-one] | 115 to 342

Same assay, conditions: P-GS1 phosphorylation, 41.7 μM [γ-32P] ATP, 25° C., 2 hours; read-out: IC50

Row | SMILES | IC50 [nM]
2 | Cn1c(OC2CCN(c3ccc(N4CCNCC4)cc3)CC2)nc(-c2ccncn2)cc1=O [1.208, 1-Methyl-2-[1-(4-piperazin-1-yl-phenyl)-piperidin-4-yloxy]-1H-[4,4′]bipyrimidinyl-6-one] | 10.7
3 | Cn1c(OC2CCN(c3ccccc3CN3CCCCC3)CC2)nc(-c2ccncn2)cc1=O [1.303, 1-Methyl-2-[1-(2-piperidin-1-ylmethyl-phenyl)piperidin-4-yloxy]-1H-[4,4′]bipyrimidinyl-6-one] | 51.2
4 | Cn1c(OC2CCN(c3ccc([N+](=O)[O-])s3)CC2)nc(-c2ccncn2)cc1=O [1.228, 1-Methyl-2-[1-(5-nitro-thiophen-2-yl)piperidin-4-yloxy]-1H-[4,4′] bipyrimidinyl-6-one] | 555
5 | Cn1c(OC2CCN(c3ccc4c(c3)CN(Cc3ccccc3)C4)CC2)nc(-c2ccncn2)cc1=O [1.227, 2-[1-(2-Benzyl-2,3-dihydro-1H-isoindol-5-yl)piperidin-4-yloxy]-1-methyl-1H-[4,4′]bipyrimidinyl-6-one] | 16
6 | CCN(CCOc1nc(-c2ccncn2)cc(=O)n1C)c1cccc(C)c1 [1.809, 2-[2-(Ethyl-m-tolyl-amino)-ethoxy]-1-methyl-1H-[4,4′] bipyrimidinyl-6-one] | 431
7 | Cn1c(OCCc2ccccc2)nc(-c2ccncn2)cc1=O [2.302, 1-Methyl-2-phenethyloxy-1H-[4,4′]bipyrimidinyl-6-one] | 160
8 | Cn1c(OCCc2ccc(CN3CCCCC3)cc2)nc(-c2ccncc2)cc1=O [Compound No. 2.401, 3-Methyl-2-[2-(4-piperidin-1-ylmethyl-phenyl)ethoxy]-6-pyridin-4-yl-3H-pyrimidin-4-one dihydrochioride] | 110
9 | Cn1c(OCC2CCN(c3ccc(CN4CCCCC4)cc3)CC2)nc(-c2ccncn2)cc1=O [1.233, 1-Methyl-2-[1-(4-piperidin-1-ylmethyl-phenyl)piperidin-4-ylmethoxy]-1H-[4,4′] bipyrimidinyl-6-one] | 41.6
10 | Cn1c(OC2CCN(c3ccc(CN4CCN(C(=O)OC(C)(C)C)CC4)cc3)CC2)nc(-c2ccncn2)cc1=O [Compound No. 1.201, tert-Butyl 4-{4-[4-(1-methyl-6-oxo-1,6-dihydro-[4,4′]bipyrimidinyl-2-yloxy)piperidin-1-yl]benzyl}piperazine-1-carboxylate] | 19.1
11 | Cn1c(OC[C@H]2CCN(c3ccsc3)C2)nc(-c2ccncn2)cc1=O [Compound No. 2.207, 1-Methyl-2-[(3S)-1-(thiophen-3-yl)pyrrolidin-3-ylmethoxy]-1H-[4,4]′bipyrimidinyl-6-one] | 307
12 | CCCCCCc1ccc(Oc2nc(-c3ccncn3)cc(=O)n2C)cc1 [Compound No. 2.001, 2-(4-Hexylphenoxy)-1-methyl-1H[4,4′]bipyrimidinyl-6one] | 429
13 | CN1CCC(N2CCC(Oc3nc(-c4ccncn4)cc(=O)n3C)CC2)CC1 [1.505, 1-Methyl-2-(1′-methyl-[1,4′]bipiperidinyl-4-yloxy)-1H-[4,4′] bipyrimidinyl-6-one] | 394
14 | Cn1c(O[C@H]2CC[C@H](c3ccc(CO)cc3)CC2)nc(-c2ccncn2)cc1=O [Compound No. 1.901, 2-[trans-4-(4-Hydroxymethyl-phenyl)cyclohexyloxy]-1-methyl-1H-[4,4′]bipyrimidinyl-6-one] | 115
15 | CN1Cc2ccc(N3CCC(Oc4nc(-c5ccncn5)cc(=O)n4C)CC3)cc2C1 [1.226, 1-Methyl-2-[1-(2-methyl-2,3-dihydro-1H-isoindol-5-yl)piperidin-4-yloxy]-1H-[4,4′]bipyrimidinyl-6-one] | 23.7
16 | Cn1c(OCC2CCN(c3ccc(CN4CCCCC4)cc3)CC2)nc(-c2ccncc2)cc1=O [1.232, 3-Methyl-2-[1-(4-piperidin-1-ylmethyl-phenyl)piperidin-4-ylmethoxy]-6-pyridin-4-yl-3H-pyrimidin-4-one] | 162
17 | Cn1c(OC2CCN(c3ccc(CN4Cc5ccccc5C4)cc3)CC2)nc(-c2ccncn2)cc1=O [1.219, 2-{1-[4-(1,3-Dihydro-isoindol-2-ylmethyl)phenyl]piperidin-4-yloxy}-1-methyl-1H-[4,4′]bipyrimidinyl-6-one] | 8.4
18 | Cn1c(OCCSc2ccccc2)nc(-c2ccncc2)cc1=O [1.806, 3-Methyl-2-(2-phenylsulfanyl-ethoxy)-6-pyridin-4-yl-3H-pyrimidin-4-one] | 55
19 | Cn1c(OC2CCN(c3cccnc3)CC2)nc(-c2ccncn2)cc1=O [1.224, 1-Methyl-2-(1-pyridin-3-yl-piperidin-4-yloxy)-1H-[4,4′]bipyrimidinyl-6-one] | 29.8
20 | CN1CCN(Cc2ccc([C@H]3CC[C@H](Oc4nc(-c5ccncn5)cc(=O)n4C)CC3)cc2)CC1 [Compound No. 1.903, 1-Methyl-2-{trans-4-[4-(4-methyl-piperazin-1-ylmethyl)phenyl]cyclohexyloxy}-1H-[4,4′] bipyrimidinyl-6-one] | 7.8

Row | SMILES | IC50 [nM]
21 | Cn1c(OC2CCN(c3ccc(CN4CCCCC4)cc3)C2)nc(-c2ccncn2)cc1=O (stereo not drawn) [1.231, 1-Methyl-2-[1-(4-piperidin-1-ylmethyl-phenyl)pyrrolidin-3-yloxy]-1H-[4,4′]bipyrimidinyl-6-one] | 12.8
22 | Cn1c(OC2CCN(c3ccc(-c4ccncc4)cc3)CC2)nc(-c2ccncc2F)cc1=O [1.207, 6-(3-Fluoro-pyridin-4-yl)-3-methyl-2-[1-(4-pyridin-4-yl-phenyl)piperidin-4-yloxy]-3H-pyrimidin-4-one] | 32.6
23 | Cn1c(OC[C@H]2CCCN2c2ccc(F)cc2)nc(-c2ccncn2)cc1=O [2.202, 2-[(2R)-1-(4-Fluoro-phenyl)pyrrolidin-2-ylmethoxy]-1-methyl-1H-[4,4′]bipyrimidinyl-6-one] | 158
24 | Cn1c(O[C@H]2CC[C@@H](c3ccc(CO)cc3)CC2)nc(-c2ccncn2)cc1=O [Compound No. 1.902, 2-[cis-4-(4-Hydroxymethyl-phenyl)cyclohexyloxy]-1-methyl-1H-[4,4′]bipyrimidinyl-6-one] | 124
25 | CN1CCN(Cc2ccc([C@H]3CC[C@@H](Oc4nc(-c5ccncn5)cc(=O)n4C)CC3)cc2)CC1 [Compound No. 1.904, 1-Methyl-2-{cis-4-[4-(4-methyl-piperazin-1-ylmethyl)phenyl]cyclohexyloxy}-1H-[4,4′] bipyrimidinyl-6-one] | 30.3
26 | CC(=O)N1Cc2ccc(N3CCC(Oc4nc(-c5ccncn5)cc(=O)n4C)CC3)cc2C1 [1.230, 2-[1-(2-Acetyl-2,3-dihydro-1H-isoindol-5-yl)piperidin-4-yloxy]-1-methyl-1H-[4,4′]bipyrimidinyl-6-one] | 154
27 | Cn1c(OC[C@H]2CCCN2c2ccc(F)cc2)nc(-c2ccncc2F)cc1=O [2.203, 2-[(2R)-1-(4-Fluoro-phenyl)pyrrolidin-2-ylmethoxy]-6-(3-fluoro-pyridin-4-yl)-3-methyl-3H-pyrimidin-4-one] | 43.1
28 | CN1CCN(c2ccc(N3CCC(Oc4nc(-c5ccncn5)cc(=O)n4C)CC3)cc2)CC1 [1.209, 1-Methyl-2-{1-[4-(4-methyl-piperazin-1-yl)phenyl]piperidin-4-yloxy}-1H-[4,4′]bipyrimidinyl-6-one] | 17.9
29 | Cn1c(OC2CCN(c3cccc(CN4CCCCC4)c3)CC2)nc(-c2ccncn2)cc1=O [1.223, 1-Methyl-2-[1-(3-piperidin-1-ylmethyl-phenyl)piperidin-4-yloxy]-1H-[4,4′]bipyrimidinyl-6-one] | 9.4
30 | Cn1c(OC2CCN(c3ccc(CN4CCOCC4)cc3)CC2)nc(-c2ccncn2)cc1=O [1.213, 1-Methyl-2-[1-(4-morpholin-4-ylmethyl-phenyl)piperidin-4-yloxy]-1H-[4,4′]bipyrimidinyl-6-one] | 19.4
31 | Cn1c(OC2CCCCC2)nc(-c2ccncn2)cc1=O [1.802, 2-Cyclohexyloxy-1-methyl-1H-[4,4′]bipyrimidinyl-6-one] | 22.6
32 | Cn1c(OC2CCCC2)nc(-c2ccncn2)cc1=O [1.804, 2-Cyclopentyloxy-1-methyl-1H-[4,4′]bipyrimidinyl-6-one] | 100
33 | CCC1CCCCC1Oc1nc(-c2ccncn2)cc(=O)n1C (stereo not drawn) [1.803, 2-(2-Ethyl-cyclohexyloxy)-1-methyl-1H-[4,4′]bipyrimidinyl-6-one] | 948
34 | Cn1c(OC2CCCN(S(=O)(=O)c3ccccc3)C2)nc(-c2ccncn2)cc1=O (stereo not drawn) [1.109, 2-(1-Benzenesulfonyl-piperidin-3-yloxy)-1-methyl-1H-[4,4′] bipyrimidinyl-6-one] | 76.1
35 | Cn1c(OC2CCN(c3ccc(CN4CCCCC4)cc3)CC2)nc(-c2ccncc2)cc1=O [1.215, 3-Methyl-2-[1-(4-piperidin-1-ylmethyl-phenyl)piperidin-4-yloxy]-6-pyridin-4-yl-3H-pyrimidin-4-one] | 50.1
36 | Cn1c(OC2CCN(C(=O)OCc3ccccc3)CC2)nc(-c2ccncn2)cc1=O [1.110, Benzyl 4-(1-methyl-6-oxo-1,6-dihydro-[4,4′]bipyrimidinyl-2-yloxy) piperidine-1-carboxylate] | 140
37 | COC(=O)N1CCCC(Oc2nc(-c3ccncn3)cc(=O)n2C)C1 (stereo not drawn) [Compound No. 1.102, Methyl 3-(1-methyl-6-oxo-1,6-dihydro-[4,4′]bipyrimidinyl-2-yloxy) piperidine-1-carboxylate] | 28.2
38 | Cn1c(OC[C@H]2CCN(c3ccccc3)C2)nc(-c2ccncc2F)cc1=O [2.210, 6-(3-Fluoro-pyridin-4-yl)-3-methyl-2-[(3S)-1-phenyl-pyrrolidin-3-ylmethoxy]-3H-pyrimidin-4-one] | 134
39 | Cn1c(OC2CCCN(c3ccccc3)C2)nc(-c2ccncn2)cc1=O (stereo not drawn) [Compound No. 1.101, 1-Methyl-2-(1-phenyl-piperidin-3-yloxy)-1H-[4,4′]bipyrimidinyl-6-one] | 9.4
